Here are results for 60 compounds from ChEMBL document CHEMBL1821652, “QSAR models for predicting enzymatic hydrolysis of new chemical entities in 'soft-drug' design” (Bioorg Med Chem, 2009).

SMILES strings stand for the structures.

This data set is described as follows: Half life in human plasma. It counts as ADME, cell-free.
Broadly, the half-life is the time in which the quantity being followed falls by half. Take `Nc1ccc(S(=O)(=O)N(COC(=O)c2ccccc2)c2cncs2)cc1`: the half-life worked out at 0.12 min.

`CCCCC(=O)OCn1cnc2c1c(=O)n(C)c(=O)n2C`: the half-life is 0.19 min.

For `CCOC(=O)CNC(=O)OCOC(=O)c1ccccc1`, the half-life stood at 0.24 min.

`CCOC(=O)CN(C)C(=O)OCOC(=O)c1ccccc1` displayed a half-life of 0.41 min.

Consider `CCOC(=O)CNC(=O)OCOC(=O)c1cccnc1`, for which the half-life was 0.43 min.

For `CCCN(CCC)Cc1cccc(C(=O)OCCOCn2cnc3c(=O)[nH]c(N)nc32)c1`, the half-life is 0.8 min.

`CCOC(=O)c1ccc(/N=N/N(C)C(=O)OCOC(=O)c2ccccc2OC(C)=O)cc1` showed a half-life of 1 min.

Compound `Nc1ccc(S(=O)(=O)N(COC(=O)c2ccccc2)c2ncccn2)cc1` registered a half-life of 1.38 min.

`CCOC(=O)CNC(=O)OCOC(=O)C(C)(C)Oc1ccc(Cl)cc1` had a half-life of 1.63 min.

On to `CCCCC(=O)OCN1C(=O)NC(c2ccccc2)(c2ccccc2)C1=O`, for which the half-life came to 1.9 min.

Regarding `CS(=O)(=O)N(COC(=O)c1ccccc1)c1ccc([N+](=O)[O-])cc1Oc1ccccc1`, the half-life was 1.93 min.

In turn, `CCCCN(CCCC)Cc1cccc(C(=O)OCCOCn2cnc3c(=O)[nH]c(N)nc32)c1` had a half-life of 2.3 min.

Regarding `CCOC(=O)CN(C)C(=O)OCOC(=O)[C@@H](C)c1ccc2cc(OC)ccc2c1`, the half-life was 2.72 min.

For the compound `COC(=O)[C@@H]1CCCN1C(=O)OCOC(=O)c1ccccc1`, the half-life was determined as 3.48 min.

Turning to `CCOC(=O)CNC(=O)OCOC(=O)Cc1ccccc1Nc1c(Cl)cccc1Cl`, the half-life came out at 4.17 min.

`Nc1nc2c(ncn2COCCOC(=O)c2cccc(CN3CCOCC3)c2)c(=O)[nH]1` came in with a half-life of 4.6 min.

`CCOC(=O)CN(COC(=O)[C@@H]1N2C(=O)[C@@H](NC(=O)Cc3ccccc3)[C@H]2SC1(C)C)C(=O)c1ccccc1` had a half-life of 5.1 min.

`O=C(OC[C@H]1O[C@@H](n2cc(F)c(=O)[nH]c2=O)C[C@@H]1O)[C@@H]1CCCN1` gave a half-life of 5.7 min.

In turn, `Cc1noc(N(COC(=O)c2ccccc2)S(=O)(=O)c2ccc(N)cc2)c1C` yielded a half-life of 5.78 min.

For the compound `O=C(OC[C@H]1O[C@@H](n2cc(F)c(=O)[nH]c2=O)C[C@@H]1OC(=O)[C@@H]1CCCN1)[C@@H]1CCCN1`, the half-life was determined as 6 min.

In turn, `C[C@H](NC(=O)[C@H](N)CCC(=O)OCc1ccc([N+](=O)[O-])cc1)C(=O)O` returned a half-life of 6.8 min.

`CC(=O)OCOC(=O)N(C)/N=N/c1ccc(C#N)cc1` displayed a half-life of 7 min.

In turn, `CN(C)Cc1cccc(C(=O)OCCOCn2cnc3c(=O)[nH]c(N)nc32)c1` showed a half-life of 7 min.

As to `C[C@H](NC(=O)[C@H](N)CC(=O)OCc1ccc([N+](=O)[O-])cc1)C(=O)O`, the half-life was 7.2 min.

`CCN(CC)Cc1cccc(C(=O)OCCOCn2cnc3c(=O)[nH]c(N)nc32)c1` gave a half-life of 7.5 min.

`Nc1nc2c(ncn2COCCOC(=O)c2cccc(CN3CCCCC3)c2)c(=O)[nH]1` registered a half-life of 8.5 min.

`CCN(CC)C(=O)COC(=O)[C@H]1O[C@@H](Oc2cc3oc(-c4ccc(O)cc4)cc(=O)c3c(O)c2O)[C@H](O)[C@@H](O)[C@@H]1O` had a half-life of 10 min.

Regarding `CCOC(=O)CN(COC(=O)[C@@H]1N2C(=O)[C@@H](NC(=O)c3c(-c4c(Cl)cccc4Cl)noc3C)[C@H]2SC1(C)C)C(=O)c1ccccc1`, the half-life amounted to 10.1 min.

Turning to `Cc1ncc([N+](=O)[O-])n1CCOC(=O)CCCCCCCCC(=O)OCCn1c([N+](=O)[O-])cnc1C`, the half-life was found to be 10.2 min.

`CCCCOC(=O)[C@H](Cc1ccccc1)NC(=O)CN.Cl` had a half-life of 11.5 min.

The compound `CCOC(=O)c1ccc(/N=N/N(C)C(=O)OCOC(C)=O)cc1` registered a half-life of 12 min.

In turn, `CCOC(=O)CN(COC(=O)c1ccccc1)C(=O)c1ccccc1` registered a half-life of 12 min.

Regarding `O=C(O[C@H]1C[C@H](n2cc(F)c(=O)[nH]c2=O)O[C@@H]1CO)[C@@H]1CCCN1`, the half-life was 13.8 min.

For `CC(=O)OCOC(=O)N(C)/N=N/c1ccc(C)cc1`, the half-life turned out to be 15 min.

`Cc1ncc([N+](=O)[O-])n1CCOC(=O)CCCCC(=O)OCCn1c([N+](=O)[O-])cnc1C` showed a half-life of 16.8 min.

Consider `CC(=O)OCOC(=O)N(C)/N=N/c1ccc(Br)cc1`, for which the half-life turned out to be 17 min.

`CCCCC(=O)OC[C@H]1O[C@@H](n2cnc3c(NC4CCCC4)ncnc32)[C@H](O)[C@@H]1O` yielded a half-life of 18 min.

On to `Cc1cn([C@H]2C=C[C@@H](COC(=O)CN3CCNCC3)O2)c(=O)[nH]c1=O`, for which the half-life is 20 min.

Compound `CCOC(=O)CNC(=O)OCOC(=O)c1ccccc1Nc1cccc(C(F)(F)F)c1` returned a half-life of 21.8 min.

As to `CCOC(=O)CSCC(=O)[C@@]12OC(C)(C)O[C@@H]1C[C@H]1[C@@H]3C[C@H](F)C4=CC(=O)C=C[C@]4(C)[C@@]3(F)[C@@H](O)C[C@@]12C`, the half-life worked out at 24 min.

As to `CC(C)C(=O)Oc1ccc2c3c1O[C@H]1C(=O)CC[C@@]4(O)[C@@H](C2)N(CC2CC2)CC[C@]314`, the half-life is 24.6 min.

As to `CCN(CC)Cc1ccc(C(=O)OCCOCn2cnc3c(=O)[nH]c(N)nc32)cc1`, the half-life amounted to 17 min.

Regarding `CCCCC/C=C\C/C=C\C/C=C\CCCCC(=O)OCn1cnc2c1c(=O)n(C)c(=O)n2C`, the half-life was 27.3 min.

`CCCCCCCC(=O)OC[C@H]1O[C@@H](n2cnc3c(NC4CCCC4)ncnc32)[C@H](O)[C@@H]1O` yielded a half-life of 28 min.

For the compound `NCCCC[C@H](N)C(=O)OC[C@H]1O[C@@H](n2cc(F)c(=O)[nH]c2=O)C[C@@H]1OC(=O)[C@@H](N)CCCCN`, the half-life was 29.5 min.

For `Cc1cn([C@H]2C=C[C@@H](COC(=O)CN(C)C)O2)c(=O)[nH]c1=O`, the half-life is 30 min.

On to `CCC(=O)Oc1c(-c2ccc(O)c(O)c2)oc2cc(O)cc(O)c2c1=O`, for which the half-life is 31.2 min.

In turn, `CC(C)CC(=O)Oc1ccc2c3c1O[C@H]1C(=O)CC[C@@]4(O)[C@@H](C2)N(CC2CC2)CC[C@]314` returned a half-life of 32.4 min.

`CN(C)Cc1ccc(C(=O)OCCOCn2cnc3c(=O)[nH]c(N)nc32)cc1` yielded a half-life of 33 min.

For the compound `CCN(CC)CC(=O)OCCn1c([N+](=O)[O-])cnc1C.Cl`, the half-life amounted to 33.6 min.

For the compound `CCOC(=O)c1ccc(/N=N/N(C)C(=O)OCOC(=O)c2ccccc2O)cc1`, the half-life was 34 min.

As for `Cc1ncc([N+](=O)[O-])n1CCOC(=O)CCCC(=O)OCCn1c([N+](=O)[O-])cnc1C`, the half-life stood at 36.6 min.

As to `COc1ccc2cc([C@H](C)C(=O)OCCOCCO)ccc2c1`, the half-life was determined as 38.6 min.

Take `NCCCC[C@H](N)C(=O)OC[C@H]1O[C@@H](n2cc(F)c(=O)[nH]c2=O)C[C@@H]1O`: the half-life was 38.8 min.

In the case of `CC(C)OC(=O)Oc1ccc2c3c1O[C@H]1C(=O)CC[C@@]4(O)[C@@H](C2)N(CC2CC2)CC[C@]314`, the half-life was determined as 39 min.

In turn, `O=C(OCN(C(=O)c1ccccc1)c1ccccc1)c1ccccc1` returned a half-life of 40 min.

As for `CCCSc1ccc2c(c1)nc(NC(=O)OC)n2C(=O)OCC`, the half-life was found to be 8.32 min.

For the compound `CCCSc1ccc2nc(NC(=O)OC)n(C(=O)OCC)c2c1`, the half-life was determined as 7.19 min.

With `Nc1nc(O)c2ncn(COCCOC(=O)c3ccc(CN4CCOCC4)cc3)c2n1`, the half-life amounted to 3.7 min.

With `N[C@@H](CC(=O)O)C(=O)OC[C@H]1O[C@@H](n2cc(F)c(=O)[nH]c2=O)C[C@@H]1O`, the half-life stood at 38.6 min.
